Measurements: PMC9276676, “Difluoromethylornithine (DFMO) and AMXT 1501 inhibit capsule biosynthesis in pneumococci” (Scientific Reports, 2022)

How the values were obtained:
Format in all cases: cell-based, Streptococcus pneumoniae
[1] = test system: S. pneumoniae serotype 3 (WU2); assay: DFMO susceptibility and growth in THY (OD600, MIC); parameters: Growthrate: unit not given here
Method: (§1) S. pneumoniae serotypes 4 (TIGR4), 2 (D39), 19F (EF3030) and 3 (WU2) were cultured in Todd Hewitt broth supplemented with yeast extract (THY). Supplementation with DFMO ranging from 1.1 to 549 mM was carried out in triplicate in a 96-well plate and incubated at 37 °C and 5% CO2 in a Cytation™ 5 cell imaging multi-mode reader (BioTek, Winooski, VT). The change in optical density at 600 nm (OD600) was measured every hour for 24 h and used to determine the minimum inhibitory concentration (MIC) of DFMO. The optical density data was analyzed using GrowthRates 4.0 software. To determine whether DFMO at sub-MIC is bacteriostatic or lethal to pneumococcal cells, all strains were cultured in the presence or absence of 1/2 MIC DFMO. OD600 was measured every hour and CFU were enumerated on a blood agar plate (BAP) every 2 h over an 8 h incubation period.

[2] = test system: S. pneumoniae serotype 4 (TIGR4); assay: DFMO susceptibility and growth in THY (OD600, MIC); parameters: Growthrate: unit not given here
Method: as §1

D39 (serotype 2) capsule = assay: Total capsular polysaccharide (CPS) immunoblot with densitometry
Method: (§2) S. pneumoniae strains were cultured with DFMO and AMXT 1501 at varying final concentrations of 1/2, 1/4, and 1/8 MIC to OD600 0.2–0.3 either individually or together to estimate any additive or synergistic effects. Capsular polysaccharides (CPS) were extracted and quantified in triplicate, as described previously[26] with slight modification. Briefly, CPS was extracted in a lysis buffer (4% deoxycholate, 50 µg/mL DNAse I and 50 µg/mL RNAse A) at 37 °C for 10 min and centrifuged at 18,000×g for 10 min. The supernatant (2 µL) was spotted on a 0.2-µm-pore-size nitrocellulose membrane (Thermo Fisher Scientific, Waltham, MA, USA) and oven dried at 60 °C for 15 min. The membranes were blocked and incubated with different types of antisera for capsule detection: antisera type- 4 (for TIGR4), 2 (for D39), polyclonal (for EF3030) and 3 (for WU2) (Cedarlane, Burlington, NC, USA). A conjugated polyclonal goat anti-rabbit IgG-HRP (Agilent Technologies, Santa Clara, CA, USA) was used for enhanced chemiluminescence (ECL) detection in all the strains (Thermo Fisher Scientific, Waltham, MA, USA) and scanned using a ChemiDoc XRS+ with Image Lab software (Bio-Rad, Hercules, CA, USA). Densitometry analysis of the immunoblot was done with NIH ImageJ software.
(§3) We determined the impact of varying concentrations of DFMO (1/8 to 1/2 MIC) on CPS in all serotypes (2, 4, 19F, and 3) used in this study. […] D39 was treated with 1/8 MIC DFMO alone, 1/4 MIC agmatine (Agm) alone, a combination of 1/8 MIC DFMO and 1/4 MIC Agm, and a control without DFMO or Agm. CPS was extracted as described in the previous section and immunoblot analysis with type 2 antisera was performed to detect CPS semi-quantitatively.

[3] = test system: EF3030 (serotype 19F) capsule; assay: as above
Method: as §2, §3

[4] = test system: TIGR4 (serotype 4) capsule; assay: as above
Method: as §2, §3

WU2 (serotype 3) capsule = assay: as above
Method: as §2, §3

## NCCC[C@](N)(C(=O)O)C(F)F [DFMO, α-difluoromethylornithine]
[1]
  difference in growth rate in presence or absence of DFMO (GrowthRates software): did not identify any significant differences
[1]; 1/2 MIC DFMO (137 mM)
  growth curve versus control: longer lag phase and a lower maximal O.D
[1]; DFMO 0.2 µg/µL
  Growthrate: 0.046
  Max OD: 0.497
[1]; DFMO 0.4 µg/µL
  Growthrate: 0.047
  Max OD: 0.509
[1]; DFMO 0.8 µg/µL
  Growthrate: 0.047
  Max OD: 0.548
[1]; DFMO 1.6 µg/µL
  Growthrate: 0.046
  Max OD: 0.575
[1]; DFMO 3.1 µg/µL
  Growthrate: 0.050
  Max OD: 0.650
[1]; DFMO 6.3 µg/µL
  Growthrate: 0.048
  Max OD: 0.652
[1]; DFMO 12.5 µg/µL
  Growthrate: 0.048
  Max OD: 0.696
[1]; DFMO 25.0 µg/µL
  Growthrate: 0.046
  Max OD: 0.303
[1]; DFMO 50.0 µg/µL
  Growthrate: 0.000
[1]; DFMO 100.0 µg/µL
  Growthrate: 0.000
[2]
  difference in growth rate in presence or absence of DFMO (GrowthRates software): did not identify any significant differences
[2]; DFMO 0.2 µg/µL
  Growthrate: 0.055
  Max OD: 1.583
[2]; DFMO 0.4 µg/µL
  Growthrate: 0.056
  Max OD: 1.619
[2]; DFMO 0.8 µg/µL
  Growthrate: 0.056
  Max OD: 1.657
[2]; DFMO 1.6 µg/µL
  Growthrate: 0.057
  Max OD: 1.695
[2]; DFMO 3.1 µg/µL
  Growthrate: 0.056
  Max OD: 1.654
[2]; DFMO 6.3 µg/µL
  Growthrate: 0.055
  Max OD: 1.635
[2]; DFMO 12.5 µg/µL
  Growthrate: 0.056
  Max OD: 1.560
[2]; DFMO 25.0 µg/µL
  Growthrate: 0.052
  Max OD: 1.280
[2]; DFMO 50.0 µg/µL
  Growthrate: 0.000
  Max OD: 0.000
[2]; DFMO 100.0 µg/µL
  Growthrate: 0.000
  Max OD: 0.000
D39 (serotype 2) capsule
  less capsule compared to untreated controls (densitometry of immunoblots): ~71%
D39 (serotype 2) capsule; D39, 1/8 MIC
  concentration that inhibits CPS: 34 mM
D39 (serotype 2) capsule; D39, DFMO 1/8 MIC 34 mM, agmatine 1/4 MIC 20 mM, AMXT 1501 1/2 MIC 7.4 µM, alone or with agmatine
  total CPS (capsule) by immunoblot: inhibits the capsule production
[3]
  less capsule compared to untreated controls (densitometry of immunoblots): ~84%
[3]; serotype 19F, DFMO less than 137 mM
  inhibition of CPS: failed to inhibit CPS
[4]
  less capsule compared to untreated controls (densitometry of immunoblots): approximately 85%
[4]; serotype 4, DFMO less than 137 mM
  inhibition of CPS: failed to inhibit CPS
WU2 (serotype 3) capsule
  less capsule compared to untreated controls (densitometry of immunoblots): ~39%
WU2 (serotype 3) capsule; serotype 3, DFMO less than 137 mM
  inhibition of CPS: failed to inhibit CPS
